The record followed here is patent US20130190376A1, “METHODS OF USE OF SMALL MOLECULE MODULATORS OF HEPATOCYTE GROWTH FACTOR (SCATTER FACTOR) ACTIVITY” (priority 2010, published 2013).

In one experiment the test system is HUVECs. Briefly: Nitric oxide production in endothelial cells (DAF 2-DA fluorescence). Type of experiment: cell-based, human. The note with it: HUVECs incubated 24 hours. The method, then: c. HGF and compounds of the invention stimulate nitric oxide production in endothelial cells. HUVECs are incubated with either vehicle, HGF/SF, instant compounds, or SNAP for 24 hours, loaded with the nitric oxide-sensitive fluorescence indicator DAF 2-DA and imaged under a laser scanning confocal microscope.

In another experiment the test system is MDCK cells. Description: Anti-apoptotic activity in cultured cell lines (adriamycin). Type of experiment: cell-based. The conditions noted are these: pretreatment; HUVEC and MDCK cell lines. The source says: a. HGF/SF and instant compounds have significant anti-apoptotic activity in cultured cell lines.
The test system of the next experiment is LX2 cells. Briefly: Antifibrotic activity in hepatic stellate cells. Format: cell-based, human. The note with it: serum starved (activated) LX2 cells. An excerpt: a. Antifibrotic Activity in Hepatic Stellate Cells.

As for `CC(=O)N[C@@H](C(=O)O)C(C)(C)SN=O` (racemic) [SNAP, reference compound], the “nitric oxide production (DAF 2-DA fluorescence)” value in the experiment with HUVECs is on record as “significant increase in fluorescence”.
On to “HGF/SF: Scatter factor, also known as hepatocyte growth factor; pleiotropic growth factor, heparin-binding heterodimeric protein”, for which the cell viability entry in the experiment with MDCK cells is recorded as “significantly improves the cell viability”. Also, the “nitric oxide production (DAF 2-DA fluorescence)” value in the experiment on HUVECs is “significant increase in fluorescence”. In the experiment with LX2 cells, the “collagen I mRNA expression” value is recorded as “decrease in collagen I mRNA expression”.
